Results reported in US11986532B2 (Arvinas Operations, Inc., priority 2021, dated 2024).
Where two headings read alike, the source gives them in different places.

Biological target: T1, BCL6 (Homo sapiens, UniProt P41182)
T1 construct: endogenous in cells; host or cells: T47D breast cancer epithelial cells
Experiment: Immunofluorescence protocol for high content imaging of BCL6 (degradation) in T47D cells, 3 days compound treatment
Format: cell-based
Details: for DC50: read-out: Mean DC50 (nM)* category; for Dmax: read-out: Mean Dmax (%)** category
Method in brief: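 Read-out: high-content imaging of anti-BCL6 immunofluorescence (Alexa-488 secondary) with CellMask and Hoechst counterstains, 10×, 4 fields/well. Cells had 3 days of compound exposure at 37° C, 5% CO2, 11-point 3-fold series from a final top of 0.1 or 1 μM.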

[1] = T47D cells, 3 days compound treatment

## CNC(=O)COc1cc2cc(Nc3nc(N4CCC(CN5CC6(CCN(c7ccc8c(c7)CN(C7CCC(=O)NC7=O)C8=O)CC6(F)F)C5)CC4)ncc3Cl)ccc2n(C(C)C)c1=O (stereo not shown) [Compound 136, 2-{[6-({5-chloro-2-[4-({7-[2-(2,6-dioxopiperidin-3-yl)-1-oxo-2,3-dihydro-1H-isoindol-5-yl]-5,5-difluoro-2,7-diazaspiro[3.5]nonan-2-yl}methyl)piperidin-1-yl]pyrimidin-4-yl}amino)-2-oxo-1-(propan-2-yl)-1,2-dihydroquinolin-3-yl]oxy}-N-methylacetamide]
[1]
  DC50: < 10 nM
  Dmax: 50 to 70%

## CNC(=O)COc1cc2cc(Nc3nc(N4CCC(O[C@H]5C[C@H](N6CCN(c7ccc8c(c7)C(=O)N(C7CCC(=O)NC7=O)C8=O)C(C)(C)C6)C5)CC4)ncc3Cl)ccc2n(C(C)C)c1=O (stereo partly shown) [Compound 367, 2-({6-[(5-chloro-2-{4-[(1r,3r)-3-{4-[2-(2,6-dioxopiperidin-3-yl)-1,3-dioxo-2,3-dihydro-1H-isoindol-5-yl]-3,3-dimethylpiperazin-1-yl}cyclobutoxy]piperidin-1-yl}pyrimidin-4-yl)amino]-2-oxo-1-(propan-2-yl)-1,2-dihydroquinolin-3-yl}oxy)-N-methylacetamide]
T47D
  Dmax: ≥ 70%
  DC50: 10 to 50 nM

## CNC(=O)COc1cc2cc(Nc3cc(N4CCC(CN5CCC6(CC5)CN(c5ccc7c(c5OC)CN(C5CCC(=O)NC5=O)C7=O)C6(C)C)CC4)ncc3Cl)ccc2n(C(C)C)c1=O (stereo not shown) [Compound 230, 2-{[6-({5-chloro-2-[4-({2-[2-(2,6-dioxopiperidin-3-yl)-4-methoxy-1-oxo-2,3-dihydro-1H-isoindol-5-yl]-1,1-dimethyl-2,7-diazaspiro[3.5]nonan-7-yl}methyl)piperidin-1-yl]pyridin-4-yl}amino)-2-oxo-1-(propan-2-yl)-1,2-dihydroquinolin-3-yl]oxy}-N-methylacetamide]
  DC50: < 10 nM

## CNC(=O)COc1cc2cc(Nc3nc(N4CCC(CN5CCC6(CC5)CN(c5ccc7c(c5)C(=O)N(C5CCC(=O)NC5=O)C7=O)C6)CC4)ncc3Cl)ccc2n(C2CC2)c1=O (stereo not shown) [Compound 50, 2-{[6-({5-chloro-2-[4-({2-[2-(2,6-dioxopiperidin-3-yl)-1,3-dioxo-2,3-dihydro-1H-isoindol-5-yl]-2,7-diazaspiro[3.5]nonan-7-yl}methyl)piperidin-1-yl]pyrimidin-4-yl}amino)-1-cyclopropyl-2-oxo-1,2-dihydroquinolin-3-yl]oxy}-N-methylacetamide]
[1]
  DC50: < 10 nM
  Dmax: 50 to 70%

## CNC(=O)COc1cc2cc(Nc3nc(N4CCC(O[C@H]5C[C@H](N6CC7(CCN7c7cccc8c7C(=O)N(C7CCC(=O)NC7=O)C8)C6)C5)CC4)ncc3Cl)ccc2n(C(C)C)c1=O (stereo partly shown) [Compound 310, 2-({6-[(5-chloro-2-{4-[(1r,3r)-3-{1-[2-(2,6-dioxopiperidin-3-yl)-3-oxo-2,3-dihydro-1H-isoindol-4-yl]-1,6-diazaspiro[3.3]heptan-6-yl}cyclobutoxy]piperidin-1-yl}pyrimidin-4-yl)amino]-2-oxo-1-(propan-2-yl)-1,2-dihydroquinolin-3-yl}oxy)-N-methylacetamide]
T47D
  Dmax: 50 to 70%
  DC50: < 10 nM

## CNC(=O)COc1cc2cc(Nc3nc(N4CCC(OC5CN([C@H]6CC[C@@H](c7ccc8c(c7F)CN(C7CCC(=O)NC7=O)C8=O)CC6)C5)CC4)ncc3Cl)ccc2n(C(C)C)c1=O (stereo partly shown) [Compound 184]
[1]
  DC50: < 10 nM
  Dmax: ≥ 70%

## CNC(=O)COc1cc2cc(Nc3nc(N4CCC(CN5CCC6(CC5)CN(c5ccc7c(c5OC)CN(C5CCC(=O)NC5=O)C7=O)C6)CC4)ncc3Cl)ccc2n(C(C)C)c1=O (stereo not shown) [Compound 302, 2-{[6-({5-chloro-2-[4-({2-[2-(2,6-dioxopiperidin-3-yl)-4-methoxy-1-oxo-2,3-dihydro-1H-isoindol-5-yl]-2,7-diazaspiro[3.5]nonan-7-yl}methyl)piperidin-1-yl]pyrimidin-4-yl}amino)-2-oxo-1-(propan-2-yl)-1,2-dihydroquinolin-3-yl]oxy}-N-methylacetamide]
T47D
  Dmax: 50 to 70%
  DC50: < 10 nM

## CNC(=O)COc1cc2cc(Nc3nc(N4CCC(CN5CCC6(CCN(c7ccc8c(c7)CN(C7CCC(=O)NC7=O)C8=O)C6=O)C5)CC4)ncc3Cl)ccc2n(C(C)C)c1=O (stereo not shown) [Compound 48, 2-{[6-({5-chloro-2-[4-({7-[2-(2,6-dioxopiperidin-3-yl)-1-oxo-2,3-dihydro-1H-isoindol-5-yl]-6-oxo-2,7-diazaspiro[4.4]nonan-2-yl}methyl)piperidin-1-yl]pyrimidin-4-yl}amino)-2-oxo-1-(propan-2-yl)-1,2-dihydroquinolin-3-yl]oxy}-N-methylacetamide]
[1]
  DC50: < 10 nM
  Dmax: 50 to 70%

## CNC(=O)COc1cc2cc(Nc3nc(N4CCC(O[C@H]5C[C@H](N6CCC7(CCCN(c8ccc9c(c8)C(=O)N(C8CCC(=O)NC8=O)C9=O)C7)C6)C5)CC4)ncc3Cl)ccc2n(C(C)C)c1=O (stereo partly shown) [Compound 359, 2-({6-[(5-chloro-2-{4-[(1r,3r)-3-{7-[2-(2,6-dioxopiperidin-3-yl)-1,3-dioxo-2,3-dihydro-1H-isoindol-5-yl]-2,7-diazaspiro [4.5]decan-2-yl}cyclobutoxy]piperidin-1-yl}pyrimidin-4-yl)amino]-2-oxo-1-(propan-2-yl)-1,2-dihydroquinolin-3-yl}oxy)-N-methylacetamide]
T47D
  Dmax: 50 to 70%
  DC50: 10 to 50 nM

## CNC(=O)COc1cc2cc(Nc3nc(N4CCC(OC5CCC6(CC5)CN(c5c(F)ccc7c5CN(C5CCC(=O)NC5=O)C7=O)C6)CC4)ncc3Cl)ccc2n(C(C)C)c1=O (stereo not shown) [Compound 298, 2-{[6-({5-chloro-2-[4-({2-[2-(2,6-dioxopiperidin-3-yl)-5-fluoro-1-oxo-2,3-dihydro-1H-isoindol-4-yl]-2-azaspiro[3.5]nonan-7-yl}oxy)piperidin-1-yl]pyrimidin-4-yl}amino)-2-oxo-1-(propan-2-yl)-1,2-dihydroquinolin-3-yl]oxy}-N-methylacetamide]
T47D
  Dmax: 50 to 70%
  DC50: < 10 nM

## CNC(=O)COc1cc2cc(Nc3nc(N4CCC(O[C@H]5C[C@H](N6CCC(c7cc(F)c8c(c7)C(=O)N(C7CCC(=O)NC7=O)C8)C(F)C6)C5)CC4)ncc3Cl)ccc2n(C(C)C)c1=O (stereo partly shown) [Compound 281, 2-({6-[(5-chloro-2-{4-[(1r,3r)-3-{4-[2-(2,6-dioxopiperidin-3-yl)-7-fluoro-3-oxo-2,3-dihydro-1H-isoindol-5-yl]-3-fluoropiperidin-1-yl}cyclobutoxy]piperidin-1-yl}pyrimidin-4-yl)amino]-2-oxo-1-(propan-2-yl)-1,2-dihydroquinolin-3-yl}oxy)-N-methylacetamide]
T47D
  Dmax: < 50%
  DC50: 10 to 50 nM

## CNC(=O)COc1cc2cc(Nc3nc(N4CCC(OC5CN([C@H]6CC[C@@H](c7ccc8c(c7Cl)CN(C7CCC(=O)NC7=O)C8=O)CC6)C5)CC4)ncc3Cl)ccc2n(C(C)C)c1=O (stereo partly shown) [Compound 186, 2-{[6-({5-chloro-2-[4-({1-[(1s,4s)-4-[4-chloro-2-(2,6-dioxopiperidin-3-yl)-1-oxo-2,3-dihydro-1H-isoindol-5-yl]cyclohexyl]azetidin-3-yl}oxy)piperidin-1-yl]pyrimidin-4-yl}amino)-2-oxo-1-(propan-2-yl)-1,2-dihydroquinolin-3-yl]oxy}-N-methylacetamide]
[1]
  DC50: < 10 nM
  Dmax: < 50%

## CNC(=O)COc1cc2cc(Nc3nc(N4CCC(O[C@H]5C[C@H](N6CCN(c7ccc8c(c7Cl)CN(C7CCC(=O)NC7=O)C8=O)[C@H](C)C6)C5)CC4)ncc3Cl)ccc2n(C(C)C)c1=O (stereo partly drawn) [Compound 202, 2-({6-[(5-chloro-2-{4-[(1r,3r)-3-[(3R)-4-[4-chloro-2-(2,6-dioxopiperidin-3-yl)-1-oxo-2,3-dihydro-1H-isoindol-5-yl]-3-methylpiperazin-1-yl]cyclobutoxy]piperidin-1-yl}pyrimidin-4-yl)amino]-2-oxo-1-(propan-2-yl)-1,2-dihydroquinolin-3-yl}oxy)-N-methylacetamide]
[1]
  DC50: < 10 nM
  Dmax: ≥ 70%

## CNC(=O)COc1cc2c(F)c(Nc3cc(N4CCC(CN5CCC6(CN(c7ccc8c(c7F)CN(C7CCC(=O)NC7=O)C8=O)C6)C(F)(F)C5)CC4)ncc3Cl)ccc2n(C(C)C)c1=O (stereo not shown) [Compound 252, 2-{[6-({5-chloro-2-[4-({2-[2-(2,6-dioxopiperidin-3-yl)-4-fluoro-1-oxo-2,3-dihydro-1H-isoindol-5-yl]-5,5-difluoro-2,7-diazaspiro[3.5]nonan-7-yl}methyl)piperidin-1-yl]pyridin-4-yl}amino)-5-fluoro-2-oxo-1-(propan-2-yl)-1,2-dihydroquinolin-3-yl]oxy}-N-methylacetamide]
T47D
  Dmax: 50 to 70%
  DC50: < 10 nM

## CNC(=O)COc1cc2cc(Nc3nc(N4CCC(O[C@H]5C[C@H](N6CCN(c7ccc8c(c7C)C(=O)N(C7CCC(=O)NC7=O)C8=O)CC6)C5)CC4)ncc3Cl)ccc2n(C(C)C)c1=O (stereo partly shown) [Compound 177, 2-({6-[(5-chloro-2-{4-[(1r,3r)-3-{4-[2-(2,6-dioxopiperidin-3-yl)-4-methyl-1,3-dioxoisoindol-5-yl]piperazin-1-yl}cyclobutoxy]piperidin-1-yl}pyrimidin-4-yl)amino]-1-isopropyl-2-oxoquinolin-3-yl}oxy)-N-methylacetamide]
[1]
  DC50: < 10 nM
  Dmax: ≥ 70%

## CNC(=O)COc1cc2cc(Nc3cc(N4CCC(F)(CN5CCC6(CC5)CN(c5ccc7c(c5F)CN(C5CCC(=O)NC5=O)C7=O)C6(C)C)CC4)ncc3Cl)ccc2n(C(C)C)c1=O (stereo not shown) [Compound 257, 2-{[6-({5-chloro-2-[4-({2-[2-(2,6-dioxopiperidin-3-yl)-4-fluoro-1-oxo-2,3-dihydro-1H-isoindol-5-yl]-1,1-dimethyl-2,7-diazaspiro[3.5]nonan-7-yl}methyl)-4-fluoropiperidin-1-yl]pyridin-4-yl}amino)-2-oxo-1-(propan-2-yl)-1,2-dihydroquinolin-3-yl]oxy}-N-methylacetamide]
T47D
  Dmax: 50 to 70%
  DC50: < 10 nM
